# Results published in ChEMBL document CHEMBL1201862, “PubChem BioAssay data set” (2004).
#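 Method: 48-hour compound exposure of cells in 96-well plates, five concentrations, linear interpolation of endpoints. At the GI50, growth is halved.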 The source made the active and inactive calls. Rule as the data show it: active = GI50 up to about 1.1 µM and inactive = higher.
# Experiments:
# Test in all cases: inhibition of tumour cell growth, NCI panel, 48 h
# LOX IMVI = tested on: LOX IMVI
# IGROV-1 = tested on: IGROV-1
# RPMI-8226 = tested on: RPMI-8226
# A498 = tested on: A498
# NCI-H522 = tested on: NCI-H522
# CCRF-CEM = tested on: CCRF-CEM
# KM12 = tested on: KM12
# HL-60 = tested on: HL-60
# SK-MEL-2 = tested on: SK-MEL-2
# EKVX = tested on: EKVX
# RXF 393 = tested on: RXF 393
# OVCAR-3 = tested on: OVCAR-3
# HCT-15 = tested on: HCT-15
# HT-29 = tested on: HT-29
# ACHN = tested on: ACHN
# OVCAR-5 = tested on: OVCAR-5
# SNB-75 = tested on: SNB-75
# UACC-257 = tested on: UACC-257
# HCT-116 = tested on: HCT-116
SMILES,GI50 (LOX IMVI),GI50 (IGROV-1),GI50 (RPMI-8226),GI50 (A498),GI50 (NCI-H522),GI50 (CCRF-CEM),GI50 (KM12),GI50 (HL-60),GI50 (SK-MEL-2),GI50 (EKVX),GI50 (RXF 393),GI50 (OVCAR-3),GI50 (HCT-15),GI50 (HT-29),GI50 (ACHN),GI50 (OVCAR-5),GI50 (SNB-75),GI50 (UACC-257),GI50 (HCT-116)
C=CCNC(=O)ON1C(=O)CCC1=O,> 100 µM (inactive),> 100 µM (inactive),> 100 µM (inactive),> 100 µM (inactive),31.8 µM (inactive),> 100 µM (inactive),> 100 µM (inactive),> 100 µM (inactive),> 100 µM (inactive),> 100 µM (inactive),> 100 µM (inactive),> 100 µM (inactive),> 100 µM,> 100 µM (inactive),> 100 µM (inactive),> 100 µM (inactive),> 100 µM (inactive),> 100 µM (inactive),> 100 µM (inactive)
COc1ccc(C(=O)O/N=C2/CCC/C2=C\c2ccccc2)cc1,> 100 µM (inactive),> 73.6 µM (inactive),> 100 µM (inactive),> 100 µM (inactive),97.3 µM (inactive),> 100 µM (inactive),> 100 µM (inactive),> 85.9 µM (inactive),> 100 µM (inactive),> 100 µM (inactive),> 83 µM (inactive),> 100 µM (inactive),> 100 µM,> 100 µM (inactive),> 94.8 µM (inactive),> 100 µM (inactive),> 43.3 µM (inactive),> 100 µM (inactive),> 100 µM (inactive)
COc1cc(/C=C2/C(=O)N(C(=O)OCc3ccccc3)C(Cc3cc(OC)c(OC)c(C)c3OC)C(=O)N2Cc2ccccc2)c(OC)c(C)c1OC (stereo unspecified),> 100 µM (inactive),> 100 µM (inactive),20.9 µM (inactive),88.7 µM (inactive),11 µM (inactive),,> 100 µM (inactive),7.52 µM (inactive),87.3 µM (inactive),> 100 µM (inactive),> 100 µM (inactive),48.8 µM (inactive),,> 100 µM (inactive),> 100 µM (inactive),> 100 µM (inactive),> 100 µM (inactive),9.48 µM (inactive),29.3 µM (inactive)
O=C1O/C(=C(/c2ccc(Cl)cc2)c2nc3ccccc3[nH]2)C(O)=C1c1ccc(Cl)cc1,2.44 µM (inactive),5.3 µM (inactive),2.28 µM (inactive),2.47 µM (inactive),0.944 µM (active),1.89 µM (inactive),3.29 µM (inactive),2 µM (inactive),,1.46 µM (inactive),2.26 µM (inactive),2.38 µM (inactive),,2.7 µM (inactive),2.51 µM (inactive),2.43 µM (inactive),2.69 µM (inactive),2.03 µM (inactive),1.93 µM (inactive)
C/C(C=O)=C1\C(O)C[C@]1(C)C1CC(C)(C)CC1O (stereo partly specified),> 100 µM (inactive),,42.3 µM (inactive),> 100 µM (inactive),32 µM (inactive),26.7 µM (inactive),> 100 µM (inactive),91 µM (inactive),> 100 µM (inactive),> 100 µM (inactive),> 100 µM (inactive),28.8 µM (inactive),,> 100 µM (inactive),> 100 µM (inactive),> 100 µM (inactive),,> 100 µM (inactive),72.9 µM (inactive)
C/C(CC(=O)NCCc1ccccc1)=N\NS(=O)(=O)c1ccc(C)cc1,> 100 µM (inactive),> 100 µM (inactive),> 100 µM (inactive),> 100 µM (inactive),> 100 µM (inactive),> 100 µM (inactive),> 100 µM (inactive),> 100 µM (inactive),> 100 µM (inactive),> 100 µM (inactive),> 100 µM (inactive),> 100 µM (inactive),,> 100 µM (inactive),> 100 µM (inactive),> 100 µM (inactive),> 100 µM (inactive),> 100 µM (inactive),> 100 µM (inactive)
